{
  "source": "patent US20220034903A1",
  "about": "“Therapies That Target Autoimmunity For Treating Glaucoma And Optic Neuropathy” (The Schepens Eye Research Institute, Inc., priority 2011, published 2022)",
  "type_in_all_cases": "in vivo",
  "key": {"[1]": {"test_system": "RGCs", "test": "Optic nerve crush injury, RGC loss at 4 weeks", "details": "wild-type mice, rapamycin i.p. 100 μg/day, 4 weeks post-optic nerve crush (87% loss without treatment)", "description": "FIG. 9 is a bar chart showing that suppressing autoimmunity using immuno-deficient mice or immune suppressor promotes RGC survival after optic neuropathy. Optic never crush injury was performed in wild-type (wt) mice that received daily injection of PBS (wt) or rapamycin (Rapam) as well as in Rag1^−/− (Rag1) and TCRβ^−/− (TCRβ) mice. Animals were sacrificed 4 weeks post operation, and percentage of RGC loss was assessed. (*P<0.01 as compared to the normal subject group).\n(§1) A standard procedure for quantification of RGC axon loss in optic nerve sections was used, e.g., as described in Cho et al., J Cell Sci 118, 863-872. (2005). Axonal density was calculated, and the percentage of axon loss was determined by comparing with the axon density calculated from corresponding regions of the contralateral control eyes. RGC loss was assessed quantitatively in retinal flat-mounts that were incubated with a primary antibody against a RGC specific marker, β-III-tubulin (Fournier, A. E. & McKerracher, L. Biochem Cell Biol 73, 659-664 (1995); Fitzgerald et al., Investigative ophthalmology & visual science (2009); Tuj1; Sigma-Aldrich, St.), followed by a Alexa Fluor 488-conjugated secondary antibody. The degree of RGC loss was assessed as previously described (Chen et al., Investigative ophthalmology & visual science 52, 36-44 (2011)). […]"}, "[2]": {"test_system": "RGCs", "test": "AION (ischemic optic neuropathy), RGC loss in retinal flat-mounts", "details": "WT mice, injected into the vitreous at 3, 7 and 14 days post injury, sacrificed 4 weeks after AION, vs IgG isotype", "description": "OKT3 antibody was injected into the vitreous of ischemia WT mice at 3, 7, and 14 days post injury. Injection of IgG isotype served as the control. All of the recipient mice were sacrificed at 4 weeks after AION.\nas §1, with “(2011)). The total numbers and densities of RGCs were calculated, and the percentage of RGC loss was determined by comparing RGC number with that obtained from the corresponding regions of the contralateral control eyes.” for “(2011)).”"}, "[3]": {"test_system": "retinal activity", "test": "Electroretinogram a and b wave after AION", "details": "mice with AION, vs IgG isotype-injected ischemia group, different intensity of light stimulation"}},
  "data": [
    {"compound": "CO[C@H]1C[C@@H]2CC[C@@H](C)[C@@](O)(O2)C(=O)C(=O)N2CCCC[C@H]2C(=O)O[C@H]([C@H](C)C[C@@H]2CC[C@@H](O)[C@H](OC)C2)CC(=O)[C@H](C)/C=C(\\C)[C@@H](O)[C@@H](OC)C(=O)[C@H](C)C[C@H](C)/C=C/C=C/C=C/1C", "note": "[rapamycin]", "values": [
      {"measurement": "RGC loss", "setting": "[1]", "value": 65, "unit": "%"}
    ]},
    {"compound": "OKT3 antibody: monoclonal antibody targeted at the CD3 receptor on T cells; clinically approved immunosuppressant", "values": [
      {"measurement": "effect on RGC loss after AION", "setting": "[2]", "value": "neuroprotective effect"},
      {"measurement": "retinal function (electroretinogram a and b wave) after AION", "setting": "[3]", "value": "functional rescue of retinal activity"}
    ]}
  ]
}
